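How tested: cells in 96-well plates exposed to compound for 48 hours at five concentrations. The concentration for 50% growth inhibition is given as GI50.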 Active and inactive are the calls of the source. No stated cut-off is given here; in the data, active = GI50 up to about 1.1 µM and inactive = higher.
Experiments:
Assay in all cases: NCI-60 cell line screen, 48 h
[1] = tested on: A498
[2] = tested on: CAKI-1
[3] = tested on: CCRF-CEM
[4] = tested on: EKVX
[5] = tested on: HCT-15
[6] = tested on: LXFL 529
[7] = tested on: M14
[8] = tested on: NCI-H460
[9] = tested on: RPMI-8226
[10] = tested on: RXF 393
[11] = tested on: SF-268
[12] = tested on: SF-295
[13] = tested on: SF-539
[14] = tested on: SN12C
[15] = tested on: SW-620
[16] = tested on: TK-10
[17] = tested on: UACC-62
[18] = tested on: BT-549
[19] = tested on: DU-145
[20] = tested on: Hs-578T

SMILES | GI50 [1] | GI50 [2] | GI50 [3] | GI50 [4] | GI50 [5] | GI50 [6] | GI50 [7] | GI50 [8] | GI50 [9] | GI50 [10] | GI50 [11] | GI50 [12] | GI50 [13] | GI50 [14] | GI50 [15] | GI50 [16] | GI50 [17] | GI50 [18] | GI50 [19] | GI50 [20]
O=C1CC[C@H]2CNC(=O)C[C@H]2C1 | > 100 µM (inactive) | > 100 µM (inactive) | > 100 µM (inactive) | > 100 µM (inactive) | > 100 µM | > 100 µM (inactive) | > 100 µM (inactive) | > 100 µM (inactive) | > 100 µM (inactive) | > 100 µM (inactive) | > 100 µM (inactive) | > 100 µM (inactive) | > 100 µM (inactive) | > 100 µM (inactive) | > 100 µM (inactive) | > 100 µM (inactive) | > 100 µM (inactive) | – | – | –
CCN1CCN(c2ccc(Nc3ccnc4ccc5nn(C)nc5c34)cc2)CC1 | – | 12.8 µM (inactive) | > 100 µM (inactive) | – | 13.8 µM | 10.7 µM (inactive) | 16.1 µM (inactive) | 5.41 µM (inactive) | 7.08 µM (inactive) | 10.2 µM (inactive) | 14.9 µM (inactive) | 12.4 µM (inactive) | 13.8 µM (inactive) | 10.7 µM (inactive) | 4.22 µM (inactive) | 17.5 µM (inactive) | 16.9 µM (inactive) | – | – | –
CCC(C)(C)C(=O)O[C@H]1C[C@@H](C)C=C2C=C[C@H](C)[C@H](CC[C@@H]3C[C@@H](O)CC(=O)O3)[C@H]21 [SIMVASTATIN] | 0.902 µM (active) | 4.03 µM (inactive) | 11.3 µM (inactive) | 0.948 µM (active) | 1.12 µM | 6.67 µM (inactive) | 2.25 µM (inactive) | 9.08 µM (inactive) | 8.2 µM (inactive) | 0.811 µM (active) | – | 1.13 µM (inactive) | 9.04 µM (inactive) | 1.51 µM (inactive) | 9.59 µM (inactive) | – | 0.469 µM (active) | – | – | –
COC(=O)/C(=N\Nc1nnc(C)n1N)C(C#N)c1ccc(Cl)cc1 (stereo not given) | > 100 µM (inactive) | > 100 µM (inactive) | – | > 100 µM (inactive) | > 100 µM | > 100 µM (inactive) | > 100 µM (inactive) | > 100 µM (inactive) | > 100 µM (inactive) | > 100 µM (inactive) | > 100 µM (inactive) | > 100 µM (inactive) | > 100 µM (inactive) | > 100 µM (inactive) | > 100 µM (inactive) | > 100 µM (inactive) | > 100 µM (inactive) | – | – | –
NC(=S)N/N=C(\C(=O)Nc1ccc(Cl)c(Cl)c1)C1=NN(c2ccccc2)C(c2cccc([N+](=O)[O-])c2)CC1=O (stereo not given) | > 100 µM (inactive) | 79.4 µM (inactive) | 17.2 µM (inactive) | > 100 µM (inactive) | 30.8 µM | 19.1 µM (inactive) | 55.1 µM (inactive) | 36.6 µM (inactive) | 3.37 µM (inactive) | – | 38.5 µM (inactive) | 24.9 µM (inactive) | 23.8 µM (inactive) | 16.8 µM (inactive) | 13.8 µM (inactive) | > 100 µM (inactive) | 40.8 µM (inactive) | – | – | –
C=CCN1C(=O)C/C(=C2/CCC(=O)N2CC=C)C1=O | > 100 µM (inactive) | > 100 µM (inactive) | > 100 µM (inactive) | > 100 µM (inactive) | > 100 µM | > 100 µM (inactive) | > 100 µM (inactive) | > 100 µM (inactive) | – | > 100 µM (inactive) | > 100 µM (inactive) | > 100 µM (inactive) | > 100 µM (inactive) | > 100 µM (inactive) | > 100 µM (inactive) | > 100 µM (inactive) | > 100 µM (inactive) | – | – | –
N#Cc1c(-c2ccccc2)cc(-c2ccc(N)cc2)[nH]c1=O | > 100 µM (inactive) | – | > 100 µM (inactive) | > 100 µM (inactive) | > 100 µM | > 100 µM (inactive) | > 100 µM (inactive) | > 100 µM (inactive) | > 100 µM (inactive) | > 100 µM (inactive) | > 100 µM (inactive) | > 100 µM (inactive) | > 100 µM (inactive) | > 100 µM (inactive) | > 100 µM (inactive) | > 100 µM (inactive) | > 100 µM (inactive) | – | – | –
CCC/C(=N/NC(=O)C(N)=O)C(CC)C(=O)CCC(=O)N(Cc1ccccc1)Cc1ccccc1 (stereo not given) | > 100 µM (inactive) | > 100 µM (inactive) | > 100 µM (inactive) | > 100 µM (inactive) | > 100 µM | > 100 µM (inactive) | > 100 µM (inactive) | > 100 µM (inactive) | > 100 µM (inactive) | > 100 µM (inactive) | > 100 µM (inactive) | > 100 µM (inactive) | > 100 µM (inactive) | > 100 µM (inactive) | > 100 µM (inactive) | > 100 µM (inactive) | > 100 µM (inactive) | – | – | –
O=C1C(=O)N(c2cccc(C(F)(F)F)c2)C(=O)C(=O)C1c1nc2ccccc2s1 | > 100 µM (inactive) | > 100 µM (inactive) | 24.5 µM (inactive) | > 100 µM (inactive) | 39.6 µM | 52 µM (inactive) | 98.2 µM (inactive) | > 100 µM (inactive) | > 80 µM (inactive) | > 100 µM (inactive) | 98.2 µM (inactive) | 65.3 µM (inactive) | > 100 µM (inactive) | > 93.3 µM (inactive) | 61.1 µM (inactive) | > 90.8 µM (inactive) | > 100 µM (inactive) | > 100 µM (inactive) | > 100 µM (inactive) | > 100 µM (inactive)
O=C1c2ccccc2OP(=O)(OCC(F)(F)F)OC1(C(F)(F)F)C(F)(F)F (stereo not given) | > 100 µM (inactive) | > 100 µM (inactive) | > 100 µM (inactive) | > 100 µM (inactive) | > 100 µM | > 100 µM (inactive) | > 100 µM (inactive) | > 100 µM (inactive) | > 100 µM (inactive) | > 100 µM (inactive) | > 100 µM (inactive) | > 100 µM (inactive) | > 100 µM (inactive) | > 100 µM (inactive) | > 100 µM (inactive) | > 100 µM (inactive) | > 100 µM (inactive) | – | – | –
O=C(O)CCc1nn2c(nc1=O)sc1ccc3ccccc3c12 | – | > 100 µM (inactive) | > 100 µM (inactive) | > 100 µM (inactive) | > 100 µM | > 100 µM (inactive) | > 100 µM (inactive) | > 100 µM (inactive) | > 100 µM (inactive) | > 100 µM (inactive) | > 100 µM (inactive) | > 100 µM (inactive) | > 100 µM (inactive) | > 100 µM (inactive) | > 100 µM (inactive) | > 100 µM (inactive) | > 100 µM (inactive) | – | – | –
CCOC(=O)NC(=O)c1cn(C2OC(COC(=O)CCCCCCCCC(=O)OCC3OC(n4cc(C(=O)NC(=O)OCC)c(=O)[nH]c4=O)C(O)C3O)C(O)C2O)c(=O)[nH]c1=O (stereo not given) | > 100 µM (inactive) | > 100 µM (inactive) | > 100 µM (inactive) | > 100 µM (inactive) | > 100 µM | > 100 µM (inactive) | > 100 µM (inactive) | > 100 µM (inactive) | > 100 µM (inactive) | > 100 µM (inactive) | > 100 µM (inactive) | > 100 µM (inactive) | > 100 µM (inactive) | > 100 µM (inactive) | > 100 µM (inactive) | > 100 µM (inactive) | > 100 µM (inactive) | – | – | –
CC1=C(C(=O)O)N2C(=O)[C@@H](NC(=O)C(c3ccccc3)N3CSC(=S)N(C(C)C)C3)C2SC1 (stereo not given in full) | > 100 µM (inactive) | > 100 µM (inactive) | > 100 µM (inactive) | > 100 µM (inactive) | > 100 µM | > 100 µM (inactive) | > 100 µM (inactive) | > 100 µM (inactive) | > 100 µM (inactive) | – | – | > 100 µM (inactive) | > 100 µM (inactive) | > 100 µM (inactive) | – | > 100 µM (inactive) | > 100 µM (inactive) | – | – | –
O=C1C2=C(SCCS2)C(=O)c2ccccc21 | 2.03 µM (inactive) | 1.9 µM (inactive) | 0.783 µM (active) | 1.39 µM (inactive) | 1.7 µM | 1.64 µM (inactive) | 1.87 µM (inactive) | 1.83 µM (inactive) | 1.79 µM (inactive) | 2.1 µM (inactive) | 1.66 µM (inactive) | 1.76 µM (inactive) | 1.72 µM (inactive) | 1.95 µM (inactive) | 2.11 µM (inactive) | 1.84 µM (inactive) | 1.65 µM (inactive) | – | – | –
Cc1cccc2c(=O)cc(-c3ccccc3)[nH]c12 | 5.3 µM (inactive) | – | 3.62 µM (inactive) | 46.2 µM (inactive) | 4.23 µM | 4.61 µM (inactive) | 3.45 µM (inactive) | 3.95 µM (inactive) | 5.4 µM (inactive) | 3.62 µM (inactive) | 8.15 µM (inactive) | 4.09 µM (inactive) | 5.69 µM (inactive) | 5.42 µM (inactive) | 2.6 µM (inactive) | > 100 µM (inactive) | 4.21 µM (inactive) | – | – | –

— ChEMBL document CHEMBL1201862, “PubChem BioAssay data set” (2004)
